In patent US11124496B2, “Imidazolidine compounds” (Eli Lilly and Company, priority 2017, dated 2021):

Key:
human ASK1 = human ASK1 (Homo sapiens (Human), UniProt Q99683); experiment: ASK1 autophosphorylation (Thr838) assay in HEK293 cells overexpressing human ASK1; assay type: cell-based; details: for IC50: H2O2-stimulated (1 mM, 10 minutes) ASK1 autophosphorylation at Thr838, HEK293 cells, Mean±Standard Deviation, read-out: HEK pASK1 IC50; for Efficacy (%): HEK pASK1 assay, standard ASK1 inhibitor = 100% inhibition, DMSO vehicle = 0%
[1] = target: recombinant human ASK1 (hASK1) catalytic domain (Homo sapiens (Human), UniProt Q99683); experiment: ASK1 enzymatic assay (ADP-Glo Kinase Assay); assay type: biochemical; details: for IC50: hASK1 0.25 nM, MKK6 300 nM, ATP 100 uM, Mean±Standard Deviation; for Efficacy (%): hASK1 enzymatic assay, standard ASK1 inhibitor = 100% inhibition, DMSO vehicle = 0%
Text: ASK1 Inhibitor Effect Determined by ASK1 Enzymatic Assay
The purpose of this assay is to determine the effect of ASK1 inhibitors on the production of ADP by ASK1. The recombinant human ASK1 (hASK1) catalytic domain tagged with Glutathione S-transferase is used, and histidine-tagged full-length human MAP kinase kinase 6 (MKK6) and ATP are the substrate and cofactor, respectively.
The assay is done using an ADP-Glo™ Kinase Assay Kit (Promega, Catalog #V9102) according to the manufacturer's protocol with the following modifications. Briefly, hASK1 (0.25 nM) and MKK6 (300 nM) in a buffer (10 mM MOPS pH 7.0; 10 mM Mg-Acetate; 1 mM DTT; 0.025% NP-40; 0.05% BSA; 1.5% glycerol) are incubated with ASK1 inhibitors at varying concentrations ranging from 10.00 uM to 0.17 nM for 15 minutes, followed by incubation with ATP (100 uM) for 30 minutes at room temperature. ADP-Glo™ Reagent is added to terminate the kinase reaction and deplete the remaining ATP. The Kinase Detection Reagent is then added to convert ADP to ATP. The newly synthesized ATP is measured using a luciferase/luciferin reaction, and the luminescence determined by Envision (PerkinElmer). The luminescence intensities are analyzed by GeneData, and fit to a 4 parameter dose response-inhibitor logistics curve to determine IC50 values, using the effects of 5-(4-cyclopropyl-1H-imidazol-1-yl)-2-fluoro-4-methyl-N-{6-[4-(propan-2-yl)-4H-1,2,4-triazol-3-yl]pyridin-2-yl}benzamide as a standard and DMSO vehicle for 100% and 0% inhibition, respectively.

human ASK1, sequence (Q99683 whole entry, the tested form may be a part): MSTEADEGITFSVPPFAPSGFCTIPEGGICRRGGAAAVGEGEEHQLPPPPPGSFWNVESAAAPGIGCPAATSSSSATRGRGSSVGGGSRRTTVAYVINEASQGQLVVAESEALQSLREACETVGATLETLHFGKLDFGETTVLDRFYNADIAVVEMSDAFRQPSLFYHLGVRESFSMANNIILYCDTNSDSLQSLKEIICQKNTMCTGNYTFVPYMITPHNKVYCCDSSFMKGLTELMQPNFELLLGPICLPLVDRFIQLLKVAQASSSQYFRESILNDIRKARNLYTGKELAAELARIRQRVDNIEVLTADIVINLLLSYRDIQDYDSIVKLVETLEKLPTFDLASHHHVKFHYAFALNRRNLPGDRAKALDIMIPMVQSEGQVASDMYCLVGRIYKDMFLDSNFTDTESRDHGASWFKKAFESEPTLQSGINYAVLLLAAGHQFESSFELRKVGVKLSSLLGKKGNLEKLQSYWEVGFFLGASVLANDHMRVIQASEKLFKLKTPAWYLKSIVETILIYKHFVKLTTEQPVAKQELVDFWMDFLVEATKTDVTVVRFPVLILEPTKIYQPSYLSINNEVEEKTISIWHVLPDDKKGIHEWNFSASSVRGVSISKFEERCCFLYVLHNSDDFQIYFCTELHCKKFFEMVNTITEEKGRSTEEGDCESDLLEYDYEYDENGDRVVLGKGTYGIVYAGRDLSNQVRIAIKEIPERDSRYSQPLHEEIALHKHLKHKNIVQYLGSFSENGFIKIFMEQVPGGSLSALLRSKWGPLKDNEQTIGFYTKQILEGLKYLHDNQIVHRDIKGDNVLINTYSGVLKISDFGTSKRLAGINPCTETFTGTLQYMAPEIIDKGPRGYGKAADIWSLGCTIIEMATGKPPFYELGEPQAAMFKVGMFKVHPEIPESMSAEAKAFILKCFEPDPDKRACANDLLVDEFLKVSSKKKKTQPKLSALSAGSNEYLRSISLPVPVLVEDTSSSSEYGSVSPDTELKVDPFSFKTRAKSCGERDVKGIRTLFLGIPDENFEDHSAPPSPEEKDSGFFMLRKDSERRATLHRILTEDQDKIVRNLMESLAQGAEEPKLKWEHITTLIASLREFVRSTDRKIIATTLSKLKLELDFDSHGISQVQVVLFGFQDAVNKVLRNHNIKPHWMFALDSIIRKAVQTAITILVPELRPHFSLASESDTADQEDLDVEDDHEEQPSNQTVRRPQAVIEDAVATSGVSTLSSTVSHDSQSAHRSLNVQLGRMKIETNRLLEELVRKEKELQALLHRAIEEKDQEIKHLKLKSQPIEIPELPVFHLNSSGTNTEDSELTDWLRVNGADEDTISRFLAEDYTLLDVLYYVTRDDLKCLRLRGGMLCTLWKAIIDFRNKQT
recombinant human ASK1 (hASK1) catalytic domain, sequence (Q99683 680-938): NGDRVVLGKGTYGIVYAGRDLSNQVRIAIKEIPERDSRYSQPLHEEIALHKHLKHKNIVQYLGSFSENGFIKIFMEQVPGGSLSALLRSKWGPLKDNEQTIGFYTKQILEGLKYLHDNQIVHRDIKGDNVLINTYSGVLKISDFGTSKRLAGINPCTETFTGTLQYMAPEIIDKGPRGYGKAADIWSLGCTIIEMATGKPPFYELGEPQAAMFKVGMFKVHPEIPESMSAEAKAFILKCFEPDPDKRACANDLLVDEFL

CC(C)n1cnnc1-c1cccc(N2CCN(CCc3cccnc3)C2=O)n1 [Example 1, 1-[6-(4-Isopropyl-1,2,4-triazol-3-yl)-2-pyridyl]-3-[2-(3-pyridyl)ethyl]imidazolidin-2-one]
IC50 (human ASK1): 1400 nM | Efficacy (%) (human ASK1): 80.5% | IC50 [1]: 36 ± 6.25 nM | Efficacy (%) [1]: 100%

CC(C)n1cnnc1-c1cccc(N2CCN([C@H](C)Cn3cnc(C4CC4)c3)C2=O)n1 [Example 2, 1-[(1R)-2-(4-Cyclopropylimidazol-1-yl)-1-methyl-ethyl]-3-[6-(4-isopropyl-1,2,4-triazol-3-yl)-2-pyridyl]imidazolidin-2-one]
IC50 (human ASK1): 886 ± 65.4 nM | Efficacy (%) (human ASK1): 96.0% | IC50 [1]: 14 ± 2.61 nM | Efficacy (%) [1]: 100%

CC(C)n1cnnc1-c1cccc(N2CCN(CCn3cnc(C4CC4)c3)C2=O)n1 [Example 3, 1-[2-(4-Cyclopropylimidazol-1-yl)ethyl]-3-[6-(4-isopropyl-1,2,4-triazol-3-yl)-2-pyridyl]imidazolidin-2-one]
IC50 (human ASK1): 1130 ± 300 nM | Efficacy (%) (human ASK1): 101% | IC50 [1]: 10.8 ± 2.01 nM | Efficacy (%) [1]: 100%

CC(C)n1cnnc1-c1cccc(N2CCN(CCc3cnc(C4CC4)nc3)C2=O)n1 [Example 4, 1-[2-(2-Cyclopropylpyrimidin-5-yl)ethyl]-3-[6-(4-isopropyl-1,2,4-triazol-3-yl)-2-pyridyl]imidazolidin-2-one]
IC50 (human ASK1): 735 nM | Efficacy (%) (human ASK1): 107% | IC50 [1]: 13.7 ± 6.57 nM | Efficacy (%) [1]: 100%

CC(C)n1cnnc1-c1cccc(N2CCNC2=O)n1 [Example 5, 1-(6-(4-Isopropyl-4H-1,2,4-triazol-3-yl)pyridin-2-yl)imidazolidin-2-one]
IC50 (human ASK1): 3770 nM | Efficacy (%) (human ASK1): 100% | IC50 [1]: 64.4 ± 58.5 nM | Efficacy (%) [1]: 100%

Cc1ncc(CCN2CCN(c3cccc(-c4nncn4C(C)C)n3)C2=O)cn1 [Example 6, 1-[6-(4-Isopropyl-1,2,4-triazol-3-yl)-2-pyridyl]-3-[2-(2-methylpyrimidin-5-yl)ethyl]imidazolidin-2-one]
IC50 [1]: 88.3 ± 21.8 nM | Efficacy (%) [1]: 100%

Cc1ccc(CCN2CCN(c3cccc(-c4nncn4C(C)C)n3)C2=O)cn1 [Example 7, 1-[6-(4-Isopropyl-1,2,4-triazol-3-yl)-2-pyridyl]-3-[2-(6-methyl-3-pyridyl)ethyl]imidazolidin-2-one]
IC50 (human ASK1): 520 nM | Efficacy (%) (human ASK1): 100% | IC50 [1]: 16.6 ± 3.16 nM | Efficacy (%) [1]: 100%
